Measurements as given in ChEMBL document CHEMBL1150320, “Novel ORL1-selective antagonists with oral bioavailability and brain penetrability” (Bioorg Med Chem Lett, 2008).
Values belong to the compound of their own block, whether it stands above or below them.

How the values were obtained:
[1] = Metabolic stability in human liver microsomes assessed as drug remaining after 30 mins; assay type: ADME, Microsome; conditions: read-out: Stability
[2] = molecular target: T1, Nociceptin receptor (Homo sapiens, UniProt P41146); test: Displacement of [125I]Tyr14-NC/OFQ from human ORL1 receptor
[3] = molecular target: T1, Nociceptin receptor; test: Antagonist activity at human ORL1 receptor by [35S]GTPgammaS binding assay; assay type: functional
[4] = molecular target: T2, Kappa-type opioid receptor (Homo sapiens, UniProt P41145); test: Agonist activity at human kappa opioid receptor expressed in CHO cell membrane by [35S]GTPgammaS binding assay
[5] = molecular target: T3, Mu-type opioid receptor (Homo sapiens, UniProt P35372); test: Displacement of [3H]diprenorphin from human mu opioid receptor expressed in CHO cell membrane; assay type: cell membranes
[6] = molecular target: T2, Kappa-type opioid receptor; test: Displacement of [3H]U-69593 from human kappa opioid receptor expressed in CHO cell membrane; assay type: cell membranes
[7] = molecular target: T3, Mu-type opioid receptor; test: Agonist activity at human mu opioid receptor expressed in CHO cell membrane by [35S]GTPgammaS binding assay; assay type: functional, cell membranes
[8] = molecular target: T4, Delta-type opioid receptor (Homo sapiens, UniProt P41143); test: Displacement of [3H]naltrindole from human delta opioid receptor expressed in CHO cell membrane; assay type: cell membranes
[9] = molecular target: T4, Delta-type opioid receptor; test: Agonist activity at human delta opioid receptor expressed in CHO cell membrane by [35S]GTPgammaS binding assay; assay type: functional, cell membranes
[10] = Half life in ICR mouse at 3 mg/kg, po and 1 mg/kg, iv; assay type: ADME, organism-based; conditions: in vivo
[11] = Bioavailability in ICR mouse at 3 mg/kg, po and 1 mg/kg, iv; assay type: ADME, organism-based; conditions: in vivo
[12] = molecular target: Synaptic vesicular amine transporter (Homo sapiens) (UniProt Q05940); test: Inhibition of monoamine transporter at 10 uM
[13] = Half life in rhesus monkey at 3 mg/kg, po and 1 mg/kg, iv; assay type: ADME, organism-based, Macaca mulatta; conditions: in vivo
[14] = Clearance in rhesus monkey at 3 mg/kg, po and 1 mg/kg, iv; assay type: ADME, organism-based, Macaca mulatta; conditions: in vivo
[15] = molecular target: hERG (KCNH2) (Homo sapiens, UniProt Q12809); test: Inhibition of human ERG at 10 uM
[16] = Bioavailability in rhesus monkey at 3 mg/kg, po and 1 mg/kg, iv; assay type: ADME, organism-based, Macaca mulatta; conditions: in vivo
[17] = Ratio of drug level in brain to plasma in ICR mouse at 30 mg/kg, po after 60 mins; assay type: ADME, organism-based; design: dose 30 mg/kg, route oral; conditions: read-out: BPR
[18] = Biodistribution in ICR mouse plasma at 30 mg/kg, po after 60 mins; assay type: ADME, organism-based; design: dose 30 mg/kg, route oral; conditions: read-out: Drug uptake
[19] = Half life in Sprague-Dawley rat at 3 mg/kg, po and 1 mg/kg, iv; assay type: ADME, organism-based; conditions: in vivo
[20] = Inhibition of sodium channel site 2 at 10 uM
[21] = Clearance in ICR mouse at 3 mg/kg, po and 1 mg/kg, iv; assay type: ADME, organism-based; conditions: in vivo
[22] = Clearance in Sprague-Dawley rat at 3 mg/kg, po and 1 mg/kg, iv; assay type: ADME, organism-based; conditions: in vivo
[23] = molecular target: 5-hydroxytryptamine receptor 2B (Homo sapiens) (UniProt P41595); test: Inhibition of 5HT2B receptor at 10 uM
[24] = test system: Mus musculus; test: Biodistribution in ICR mouse brain at 30 mg/kg, po after 60 mins; assay type: ADME, organism-based; design: dose 30 mg/kg, route oral; conditions: in vivo, 1 h
[25] = Bioavailability in Sprague-Dawley rat at 3 mg/kg, po and 1 mg/kg, iv; assay type: ADME, organism-based; conditions: in vivo

T3 sequence (P35372 whole entry): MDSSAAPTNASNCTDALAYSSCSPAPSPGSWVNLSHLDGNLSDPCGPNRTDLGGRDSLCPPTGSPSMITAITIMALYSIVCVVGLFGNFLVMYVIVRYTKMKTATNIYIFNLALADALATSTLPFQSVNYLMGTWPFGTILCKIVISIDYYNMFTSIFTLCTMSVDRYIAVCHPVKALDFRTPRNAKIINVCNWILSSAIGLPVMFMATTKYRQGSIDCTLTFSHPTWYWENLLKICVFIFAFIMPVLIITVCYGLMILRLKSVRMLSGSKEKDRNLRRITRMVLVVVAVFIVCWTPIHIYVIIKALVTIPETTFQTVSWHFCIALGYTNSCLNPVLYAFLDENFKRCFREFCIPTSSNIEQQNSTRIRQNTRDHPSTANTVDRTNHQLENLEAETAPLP
T2 sequence (P41145 whole entry): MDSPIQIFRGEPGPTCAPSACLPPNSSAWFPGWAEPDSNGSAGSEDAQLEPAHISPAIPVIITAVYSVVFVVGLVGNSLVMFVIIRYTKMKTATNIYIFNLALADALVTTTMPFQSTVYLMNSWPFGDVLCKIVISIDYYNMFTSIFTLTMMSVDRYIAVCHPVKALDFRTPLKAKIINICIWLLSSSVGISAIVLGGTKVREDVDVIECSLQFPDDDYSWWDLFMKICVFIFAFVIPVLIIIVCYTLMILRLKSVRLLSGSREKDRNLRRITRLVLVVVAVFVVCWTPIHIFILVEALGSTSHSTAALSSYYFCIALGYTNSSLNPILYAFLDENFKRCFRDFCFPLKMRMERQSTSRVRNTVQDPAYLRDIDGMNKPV
T1 sequence (P41146 whole entry): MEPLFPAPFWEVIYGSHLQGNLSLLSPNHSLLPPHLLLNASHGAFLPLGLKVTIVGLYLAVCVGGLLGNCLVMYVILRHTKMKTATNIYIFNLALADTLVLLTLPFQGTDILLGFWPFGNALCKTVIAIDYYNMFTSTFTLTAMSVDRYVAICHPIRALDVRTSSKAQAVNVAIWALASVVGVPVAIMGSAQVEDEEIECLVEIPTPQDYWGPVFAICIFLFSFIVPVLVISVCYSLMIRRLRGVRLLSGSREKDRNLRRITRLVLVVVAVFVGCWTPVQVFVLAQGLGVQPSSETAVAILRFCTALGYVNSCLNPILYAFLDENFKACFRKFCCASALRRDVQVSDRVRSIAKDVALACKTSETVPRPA
T4 sequence (P41143 whole entry): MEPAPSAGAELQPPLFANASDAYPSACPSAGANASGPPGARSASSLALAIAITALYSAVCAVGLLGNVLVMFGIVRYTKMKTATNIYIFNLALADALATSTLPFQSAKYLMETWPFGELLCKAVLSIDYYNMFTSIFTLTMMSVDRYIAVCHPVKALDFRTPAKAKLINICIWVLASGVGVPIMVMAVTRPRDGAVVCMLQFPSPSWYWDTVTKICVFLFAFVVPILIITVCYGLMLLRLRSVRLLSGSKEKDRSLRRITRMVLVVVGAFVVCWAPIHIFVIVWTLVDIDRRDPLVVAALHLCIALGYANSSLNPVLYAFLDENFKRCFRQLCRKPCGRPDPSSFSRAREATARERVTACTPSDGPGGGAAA
Chain of Synaptic vesicular amine transporter (Homo sapiens) (Q05940 whole entry): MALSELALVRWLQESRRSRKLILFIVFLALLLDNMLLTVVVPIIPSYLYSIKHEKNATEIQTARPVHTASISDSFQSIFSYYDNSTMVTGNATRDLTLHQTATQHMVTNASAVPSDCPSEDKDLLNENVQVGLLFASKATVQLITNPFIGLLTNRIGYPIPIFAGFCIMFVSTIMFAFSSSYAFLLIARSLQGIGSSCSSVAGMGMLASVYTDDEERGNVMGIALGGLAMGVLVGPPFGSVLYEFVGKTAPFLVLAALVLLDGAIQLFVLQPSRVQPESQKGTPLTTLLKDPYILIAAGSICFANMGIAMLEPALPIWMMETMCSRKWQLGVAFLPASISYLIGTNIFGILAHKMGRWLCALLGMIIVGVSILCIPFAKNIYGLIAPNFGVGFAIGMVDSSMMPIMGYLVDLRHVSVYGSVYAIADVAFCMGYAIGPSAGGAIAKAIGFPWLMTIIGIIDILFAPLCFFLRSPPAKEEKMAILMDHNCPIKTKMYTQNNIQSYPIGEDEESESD
Chain of 5-hydroxytryptamine receptor 2B (Homo sapiens) (P41595 whole entry): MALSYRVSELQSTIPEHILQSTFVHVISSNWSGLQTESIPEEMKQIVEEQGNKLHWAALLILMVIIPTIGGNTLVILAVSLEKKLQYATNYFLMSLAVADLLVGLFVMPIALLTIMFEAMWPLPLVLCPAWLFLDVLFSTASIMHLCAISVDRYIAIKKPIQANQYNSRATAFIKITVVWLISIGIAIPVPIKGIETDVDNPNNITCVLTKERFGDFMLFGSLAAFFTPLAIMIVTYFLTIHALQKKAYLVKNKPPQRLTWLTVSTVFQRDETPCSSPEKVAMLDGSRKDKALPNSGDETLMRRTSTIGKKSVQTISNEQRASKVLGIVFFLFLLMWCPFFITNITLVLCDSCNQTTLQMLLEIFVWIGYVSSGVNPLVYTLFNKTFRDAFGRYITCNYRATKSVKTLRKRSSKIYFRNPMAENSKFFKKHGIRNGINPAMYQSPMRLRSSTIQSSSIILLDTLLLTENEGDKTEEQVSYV
Chain of hERG (KCNH2) (Q12809 whole entry): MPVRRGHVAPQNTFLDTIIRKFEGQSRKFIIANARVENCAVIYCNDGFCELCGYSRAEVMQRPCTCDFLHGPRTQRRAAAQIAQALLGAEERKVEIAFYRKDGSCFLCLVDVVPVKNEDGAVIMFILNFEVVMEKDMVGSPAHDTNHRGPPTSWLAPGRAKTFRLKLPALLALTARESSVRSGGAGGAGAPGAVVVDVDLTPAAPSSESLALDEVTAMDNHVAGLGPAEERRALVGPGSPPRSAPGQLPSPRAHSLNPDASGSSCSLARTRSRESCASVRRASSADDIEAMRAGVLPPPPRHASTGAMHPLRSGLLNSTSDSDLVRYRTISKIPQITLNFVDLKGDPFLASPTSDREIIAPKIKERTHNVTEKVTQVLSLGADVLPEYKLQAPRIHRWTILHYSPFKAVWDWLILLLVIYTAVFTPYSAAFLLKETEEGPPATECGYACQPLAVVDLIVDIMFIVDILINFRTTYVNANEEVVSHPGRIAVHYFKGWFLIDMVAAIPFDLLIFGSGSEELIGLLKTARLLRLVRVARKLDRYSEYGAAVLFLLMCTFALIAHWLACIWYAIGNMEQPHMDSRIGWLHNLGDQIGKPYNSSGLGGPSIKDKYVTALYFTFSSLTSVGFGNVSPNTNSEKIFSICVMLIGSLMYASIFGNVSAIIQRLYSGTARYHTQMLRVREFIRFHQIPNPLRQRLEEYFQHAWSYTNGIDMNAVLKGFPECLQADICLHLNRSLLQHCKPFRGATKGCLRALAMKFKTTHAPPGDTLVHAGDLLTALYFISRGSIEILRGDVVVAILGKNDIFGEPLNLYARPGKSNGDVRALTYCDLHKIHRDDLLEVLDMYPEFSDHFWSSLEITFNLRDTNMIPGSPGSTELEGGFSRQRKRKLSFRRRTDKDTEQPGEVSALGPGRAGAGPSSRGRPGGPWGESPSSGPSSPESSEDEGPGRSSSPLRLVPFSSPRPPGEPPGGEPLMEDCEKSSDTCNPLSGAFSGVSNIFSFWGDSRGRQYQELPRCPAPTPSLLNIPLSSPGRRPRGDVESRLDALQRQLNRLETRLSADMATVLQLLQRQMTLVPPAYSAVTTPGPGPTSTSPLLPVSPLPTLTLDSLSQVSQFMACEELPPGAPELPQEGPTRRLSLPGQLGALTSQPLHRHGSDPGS

remaining at 0.5 h [1]: 36%
Structure (SMILES): CCC(C)(CC)Sc1nc2cc(Cl)c(N3CCN(CCO)CC3)cc2[nH]1

IC50 [2]: 73 nM
IC50 [3]: 59 nM
remaining at 0.5 h [1]: 7%
Structure (SMILES): CCC(CC)Sc1nc2cc(Cl)c(N3CCN(CCO)C(C)(C)C3)cc2[nH]1

Structure (SMILES): CCC(CC)Sc1nc2cc(Cl)c(N3CCN(CCO)C(C)C3)cc2[nH]1 (racemic)
IC50 [2]: 8 nM
IC50 [3]: 22 nM
remaining at 0.5 h [1]: 17%

EC50 [4]: 18 nM
IC50 [5]: 67 nM
IC50 [6]: 5.3 nM
IC50 [2]: 1.1 nM
IC50 [3]: 2.2 nM
IC50 [7]: 25 nM
IC50 [8]: 238 nM
EC50 [9]: 14 nM
Emax [9]: 94%
remaining at 0.5 h [1]: 70%
Structure (SMILES): C[C@H]1CN(CCO)CCN1c1cc2[nH]c(SC(C)(C)C)nc2cc1Cl

IC50 [2]: 18 nM
IC50 [3]: 27 nM
remaining at 0.5 h [1]: 63%
Structure (SMILES): CCC(CC)Sc1nc2cc(Cl)c(N3C[C@@H]4C[C@H]3CN4CCO)cc2[nH]1

IC50 [8]: > 1000 nM
remaining at 0.5 h [1]: 71%
Structure (SMILES): CC(C)(C)Sc1nc2cc(Cl)c(N3CCN(CCO)CC3)cc2[nH]1

half-life [10]: 48.6 min
bioavailability [11]: 33%
IC50 [4]: 180 nM
inhibition [12]: 52%
IC50 [5]: 1900 nM
half-life [13]: 186 min
IC50 [6]: 120 nM
clearance [14]: 20 mL/min/kg
IC50 [2]: 2.6 nM
IC50 [3]: 0.65 nM
bioavailability [16]: 37%
IC50 [7]: 97 nM
Kp at 1 h [17]: 0.47
concentration at 1 h [18]: 2380 nM
IC50 [8]: > 1000 nM
half-life [19]: 55.2 min
inhibition [20]: 68%
clearance [21]: 121 mL/min/kg
IC50 [9]: 1200 nM
clearance [22]: 81 mL/min/kg
inhibition [23]: 52%
Drug uptake [24]: 1.04 µmol/kg
remaining at 0.5 h [1]: 87%
bioavailability [25]: 29%
Structure (SMILES): C[C@@H]1CN(CCO)CCN1c1cc2[nH]c(SC(C)(C)C)nc2cc1Cl
inhibition at 10 µM [15]: 86%
